# Test system: HCV 1b-377-neo replicon cells
# Assay: HCV replicon assay, HCV 1b-377-neo replicon cells (1b FRET)
# Assay type: cell-based, Hepatitis C virus genotype 1b
# Conditions: HCV 1b-377-neo replicon cells; HCV 1b genotype
# Outline: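 Compounds were tested in genotype 1b subgenomic replicon cells carrying a neomycin marker, alongside a matched replicon line with an NS5A Y2065H substitution that confers resistance to a reference NS5A inhibitor.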
row,SMILES,"EC50 range against HCV 1b (Table 2, Range)"
1,"COC(=O)N[C@@H](C(=O)N1CCC[C@H]1c1ncc(-c2ccc(-c3ccc(-c4cnc([C@@H]5CCCN5C(=O)Cc5ccccc5OC)[nH]4)cc3)cc2)[nH]1)c1ccccc1 [Example 84-65, methyl ((1R)-2-((2S)-2-(5-(4′-(2-((2S)-1-((2-methoxyphenyl)acetyl)-2-pyrrolidinyl)-1H-imidazol-5-yl)-4-biphenylyl)-1H-imidazol-2-yl)-1-pyrrolidinyl)-2-oxo-1-phenylethyl)carbamate]",C-D
2,"COC(=O)N[C@@H](C(=O)N1CCC[C@H]1c1ncc(-c2ccc(-c3ccc(-c4cnc([C@@H]5CCCN5C(=O)[C@H](NC(=O)OC)c5ccccc5)[nH]4)cc3C(=O)O)cc2)[nH]1)c1ccccc1 [Example M117, 4,4′-bis(2-((2S)-1-((2R)-2-((methoxycarbonyl)amino)-2-phenylacetyl)-2-pyrrolidinyl)-1H-imidazol-5-yl)-2-biphenylcarboxylic acid]",>A

# Same assay, conditions: HCV 1b-377-neo replicon cells; HCV 1b genotype; read-out: EC50 range against HCV 1b (Table 2, Range)
row,SMILES,EC50
1,COC(=O)N[C@@H](C(=O)N1CCC[C@H]1c1ncc(-c2ccc(-c3ccc(-c4cnc([C@@H]5CCCN5C(=O)[C@H]5CCN(Cc6ccccc6)C5)[nH]4)cc3)cc2)[nH]1)c1ccccc1 [Example 84-28],0.001 to 0.999 nM
2,"O=C(C(c1ccccc1)N1CC[C@H](F)C1)N1CCC[C@H]1c1ncc(-c2ccc(-c3ccc(-c4cnc([C@@H]5CCCN5C(=O)C(c5ccccc5)N5CC[C@H](F)C5)[nH]4)cc3)cc2)[nH]1 (stereo partly drawn) [Example 19, 5,5′-(4,4′-biphenyldiyl)bis(2-((2S)-1-(((3S)-3-fluoro-1-pyrrolidinyl)(phenyl)acetyl)-2-pyrrolidinyl)-1H-imidazole)]",0.001 to 0.999 nM

# Same assay, conditions: Hepatitis C virus, HCV 1b-377-neo replicon cells; HCV 1b genotype; read-out: EC50 range against HCV 1b (Table 2, Range)
row,SMILES,EC50
1,"COC(=O)N[C@@H](C(=O)N[C@@H](C)c1ncc(-c2ccc(-c3cnc(-c4cnc([C@@H]5CCCN5C(=O)[C@H](NC(=O)OC)c5ccccc5)[nH]4)cn3)cc2)[nH]1)c1ccccc1 [Example 152j-28, methyl ((1R)-2-((2S)-2-(5-(5-(4-(2-((1S)-1-(((2R)-2-((methoxycarbonyl)amino)-2-phenylacetyl)amino)ethyl)-1H-imidazol-5-yl)phenyl)-2-pyrazinyl)-1H-imidazol-2-yl)-1-pyrrolidinyl)-2-oxo-1-phenylethyl)carbamate]",0.001 to 0.999 nM
2,"CCN(CC)[C@@H](C(=O)N1CCC[C@H]1c1ncc(-c2ccc(-c3ccc(-c4cnc([C@@H]5CCCN5C(=O)[C@@H](Nc5ncccn5)C(C)C)[nH]4)cc3)cc2)[nH]1)c1ccccc1 [cj-11c, N-((1S)-1-(((2S)-2-(5-(4′-(2-((2S)-1-((2R)-2-(diethylamino)-2-phenylacetyl)-2-pyrrolidinyl)-1H-imidazol-5-yl)-4-biphenylyl)-1H-imidazol-2-yl)-1-pyrrolidinyl)carbonyl)-2-methylpropyl)-2-pyrimidinamine]",0.001 to 0.999 nM
3,"COC(=O)N[C@@H](C(=O)N1CCC[C@H]1c1ncc(-c2ccc(-c3ccc(-c4cnc([C@@H]5CCCN5C(=O)[C@H](O)c5ccccc5)[nH]4)cc3)cc2)[nH]1)c1ccccc1 [Example 43, methyl ((1R)-2-((2S)-2-(5-(4′-(2-((2S)-1-((2R)-2-hydroxy-2-phenylacetyl)-2-pyrrolidinyl)-1H-imidazol-5-yl)-4-biphenylyl)-1H-imidazol-2-yl)-1-pyrrolidinyl)-2-oxo-1-phenylethyl)carbamate]",0.001 to 0.999 nM
4,"COC(=O)N[C@@H](C)C(=O)N1CCC[C@H]1c1ncc(-c2ccc(-c3ccc(-c4nc([C@@H]5CCCN5C(=O)[C@H](C)NC(=O)OC)[nH]c4CO)cc3)cc2)[nH]1 [Example J14f.1, methyl ((1S)-2-((2S)-2-(4-(4′-(4-(hydroxymethyl)-2-((2S)-1-(N-(methoxycarbonyl)-L-alanyl)-2-pyrrolidinyl)-1H-imidazol-5-yl)-4-biphenylyl)-1H-imidazol-2-yl)-1-pyrrolidinyl)-1-methyl-2-oxoethyl)carbamate]",1 to 99 nM
5,"COC(=O)N[C@@H](C(=O)N1CCC[C@H]1c1ncc(-c2ccc(-c3ccc(-c4cnc([C@@H]5CCCN5C(=O)[C@H](NC(=O)OC)c5ccccc5)[nH]4)c(F)c3)cc2)[nH]1)c1ccccc1 [Example D46, dimethyl ((3-fluoro-4,4′-biphenyldiyl)bis(1H-imidazole-5,2-diyl(2S)-2,1-pyrrolidinediyl((1R)-2-oxo-1-phenyl-2,1-ethanediyl))) biscarbamate]",0.001 to 0.999 nM
6,"COC(=O)N[C@@H](C)C(=O)N1CCC[C@H]1c1ncc(-c2ccc(-c3ccc(-c4cnc([C@@H]5CCCN5C(=O)[C@H](O)c5ccccc5)[nH]4)cc3)cc2)[nH]1 [Example M98, methyl ((1S)-2-((2S)-2-(5-(4′-(2-((2S)-1-((2R)-2-hydroxy-2-phenylacetyl)-2-pyrrolidinyl)-1H-imidazol-5-yl)-4-biphenylyl)-1H-imidazol-2-yl)-1-pyrrolidinyl)-1-methyl-2-oxoethyl)carbamate]",1 to 99 nM
7,"O=C([C@H](O)Cc1ccccc1)N1CCC[C@H]1c1ncc(-c2ccc(-c3ccc(-c4cnc([C@@H]5CCCN5C(=O)[C@H](O)Cc5ccccc5)[nH]4)cc3)cc2)[nH]1 [Example 9, (2R,2′R)-1,1′-(4,4′-biphenyldiylbis(1H-imidazole-5,2-diyl(2S)-2,1-pyrrolidindiyl))bis(1-oxo-3-phenyl-2-propanol)]",1 to 99 nM
8,COC(=O)N[C@H](C(=O)N1CCC[C@H]1c1ncc(-c2ccc(-c3ccc(-c4cnc([C@@H]5CCCN5C(=O)[C@@H](NC(=O)OC)C(C)C)[nH]4)cc3)cc2)[nH]1)C(C)C [Example 24-23],0.001 to 0.999 nM
9,"COC(=O)N[C@@H](C(=O)N1CC2(CC2)C[C@H]1c1nc(-c2ccc(-c3ccc(-c4c[nH]c([C@@H]5CC6(CC6)CN5C(=O)[C@H](NC(=O)OC)C(C)C)n4)cc3)cc2)c[nH]1)C(C)C [Example M149, methyl ((1R)-1-(((6S)-6-(4-(4′-(2-((6S)-5-((2R)-2-((methoxycarbonyl)amino)-3-methylbutanoyl)-5-azaspiro[2.4]hept-6-yl)-1H-imidazol-4-yl)-4-biphenylyl)-1H-imidazol-2-yl)-5-azaspiro[2.4]hept-5-yl)carbonyl)-2-methylpropyl)carbamate]",1 to 99 nM
10,"COC(=O)N[C@@H](CC(=O)OCc1ccccc1)C(=O)N1CCC[C@H]1c1ncc(-c2ccc(-c3ccc(-c4cnc([C@@H]5CCCN5C(=O)[C@@H](NC(=O)OC)C(C)C)[nH]4)cc3)cc2)[nH]1 [Example M109, benzyl (3S)-3-((methoxycarbonyl)amino)-4-((2S)-2-(5-(4′-(2-((2S)-1-(N-(methoxycarbonyl)-L-valyl)-2-pyrrolidinyl)-1H-imidazol-5-yl)-4-biphenylyl)-1H-imidazol-2-yl)-1-pyrrolidinyl)-4-oxobutanoate]",1 to 99 nM
11,COC(=O)N[C@H](C(=O)N1CCC[C@H]1c1ncc(-c2ccc(-c3ccc(-c4cnc([C@@H]5CCCN5C(=O)[C@@H](NC(=O)OC)[C@@H](C)CO)[nH]4)cc3)cc2)[nH]1)C(C)C [Example M106],1 to 99 nM
12,"COC(=O)N[C@@H](C(=O)N1CCC[C@H]1c1ncc(-c2ccc(-c3ccc(-c4cnc([C@@H]5CCCN5C(=O)Cc5ccccc5CN(C)C)[nH]4)cc3)cc2)[nH]1)c1ccccc1 [Example 84-87, methyl ((1R)-2-((2S)-2-(5-(4′-(2-((2S)-1-((2-((dimethylamino)methyl)phenyl)acetyl)-2-pyrrolidinyl)-1H-imidazol-5-yl)-4-biphenylyl)-1H-imidazol-2-yl)-1-pyrrolidinyl)-2-oxo-1-phenylethyl)carbamate]",0.001 to 0.999 nM
13,"COC(=O)N[C@@H](C(=O)N1CCC[C@H]1c1ncc(-c2ccc(-c3ccc(-c4cnc([C@@H]5CCCN5C(=O)CNC(C)=O)[nH]4)cc3)cc2)[nH]1)c1ccccc1 [Example 41, methyl ((1R)-2-((2S)-2-(5-(4′-(2-((2S)-1-(N-acetylglycyl)-2-pyrrolidinyl)-1H-imidazol-5-yl)-4-biphenylyl)-1H-imidazol-2-yl)-1-pyrrolidinyl)-2-oxo-1-phenylethyl)carbamate]",0.001 to 0.999 nM
14,"COC(=O)N[C@@H](C(=O)N1CCC[C@H]1c1ncc(-c2ccc(-c3ccc(-c4[nH]c([C@@H]5CCCN5C(=O)[C@H](NC(=O)OC)c5ccccc5)nc4C(N)=O)cc3)cc2)[nH]1)c1ccccc1 [Example J29, methyl ((1R)-2-((2S)-2-(4-carbamoyl-5-(4′-(2-((2S)-1-((2R)-2-((methoxycarbonyl)amino)-2-phenylacetyl)-2-pyrrolidinyl)-1H-imidazol-5-yl)-4-biphenylyl)-1H-imidazol-2-yl)-1-pyrrolidinyl)-2-oxo-1-phenylethyl)carbamate]",0.001 to 0.999 nM
15,"COC(=O)N[C@@H](C(=O)N1C[C@@H](O)C[C@H]1c1ncc(-c2ccc(-c3ccc(-c4cnc([C@@H]5C[C@H](O)CN5C(=O)[C@H](NC(=O)OC)c5ccccc5)[nH]4)cc3)cc2)[nH]1)c1ccccc1 [Example 24-17, dimethyl (4,4′-biphenyldiylbis(1H-imidazole-5,2-diyl((2S,4S)-4-hydroxy-2,1-pyrrolidinediyl)((1R)-2-oxo-1-phenyl-2,1-ethanediyl)))biscarbamate]",0.001 to 0.999 nM
16,COC(=O)N[C@H](C(=O)N1CCC[C@H]1c1ncc(-c2ccc(-c3ccc(-c4cnc([C@@H]5CCCN5C(=O)[C@@H](NC(=O)OC)[C@H](C)CO)[nH]4)cc3)cc2)[nH]1)C(C)C [Example M107],1 to 99 nM
17,"COC(=O)N[C@H](C(=O)N1[C@@H]2C[C@@H]2C[C@H]1c1nc(-c2ccc(-c3ccc(-c4c[nH]c([C@@H]5C[C@H]6C[C@H]6N5C(=O)[C@@H](NC(=O)OC)C5CC5)n4)cc3)cc2)c[nH]1)C1CC1 [Example M135, dimethyl (4,4′-biphenyl-diylbis(1H-imidazole-4,2-diyl(1R,3S,5R)-2-azabicyclo[3.1.0]hexane-3,2-diyl((1S)-1-cyclopropyl-2-oxo-2,1-ethanediyl)))biscarbamate]",0.001 to 0.999 nM

# Reference: patent US8574563B2 (Bristol-Myers Squibb Company, priority 2006, dated 2013)
